Where two headings read alike, the source gives them in different places.
Experiment: logP determination by HPLC (EEC Directive 79/831 Annex V. A8)
Type: physicochemical
Description: logP value is determined in accordance with EEC Directive 79/831 Annex V. A8 by HPLC (gradient method, acetonitrile/0.1% aqueous phosphoric acid)

[1] = HPLC, gradient method, acetonitrile/0.1% aqueous phosphoric acid, read-out: logP

Compound | chromatographic logP [1] | further results
CC1CCN(c2c(-c3ccc(F)cc3Cl)c(Cl)nc3c(CO)cnn23)CC1 [Example 1, 3-hydroxymethyl-5-chloro-6-(2-chloro-4-fluorophenyl)-7-(4-methylpiperidino)pyrazolo[1,5-a]pyrimidine] | 3.89 | 
CC1CCN(c2c(-c3ccc(F)cc3Cl)c(Cl)nc3c(C#N)cnn23)CC1 [Example 543, 3-cyano-5-chloro-6-(2-chloro-4-fluorophenyl)-7-(4-methylpiperidino)pyrazolo[1,5-a]pyrimidine] |  | chromatographic logP (pH=2.3, read-out: log P(pH=2.3)): 4.88
CCC1COC(c2cnn3c(NC(C)C(C)(C)C)c(-c4ccc(F)cc4Cl)c(Cl)nc23)O1 (stereo not drawn) [Example 23] | 5.7 | 
CC1CCN(c2c(-c3ccc(F)cc3Cl)c(Cl)nc3c(C=O)cnn23)CC1 [Example 541, 3-formyl-5-chloro-6-(2-chloro-4-fluorophenyl)-7-(4-methylpiperidino)pyrazolo[1,5-a]pyrimidine] |  | chromatographic logP (HPLC, gradient of acetonitrile/0.1% aqueous phosphoric acid, pH=2.3, read-out: log P(pH=2.3)): 4.53
CC(Nc1c(-c2ccc(F)cc2Cl)c(Cl)nc2c(C=O)cnn12)C(C)(C)C (stereo not drawn) [Example 542, 3-formyl-5-chloro-6-(2-chloro-4-fluorophenyl)-7-(3,3-dimethylbut-2-ylamino)pyrazolo[1,5-a]pyrimidine] |  | chromatographic logP (HPLC (gradient method), per EEC Directive 79/831 Annex V. A8, two values, one per atropisomer, read-out: log P (atropisomers)): 4.47
COCc1cnn2c(N3CCC(C)CC3)c(-c3ccc(F)cc3Cl)c(Cl)nc12 [Example 2, 3-methoxymethyl-5-chloro-6-(2-chloro-4-fluorophenyl)-7-(4-methylpiperidno)pyrazolo[1,5-a]pyrimidine] | 5.09 | 

— US20070197540A1, “Pyrazolopyrimidines” (priority 2003, published 2007)
